Assay: xn = mol fraction of the nth substance listed
Details: 100 kPa

CCCC[N+](C)(C)C[c-]1cccc1.O=S(=O)([N-]S(=O)(=O)C(F)(F)F)C(F)(F)F.[Fe+2].c1cc[cH-]c1 + CC#N
Details | electrical conductivity [S/m]
298 K, x1 = 0.01 | 1.35
298 K, x1 = 0.02 | 1.89
298 K, x1 = 0.05 | 2.2
298 K, x1 = 0.06 | 2.14
298 K, x1 = 0.07 | 2.07
298 K, x1 = 0.08 | 1.96
298 K, x1 = 0.1 | 1.8
298 K, x1 = 0.12 | 1.45
298 K, x1 = 0.15 | 1.17
298 K, x1 = 0.2 | 0.759
303 K, x1 = 0.01 | 1.41
303 K, x1 = 0.02 | 1.98
303 K, x1 = 0.03 | 2.28
303 K, x1 = 0.05 | 2.32
303 K, x1 = 0.06 | 2.28
303 K, x1 = 0.07 | 2.2
303 K, x1 = 0.08 | 2.07
303 K, x1 = 0.12 | 1.57
303 K, x1 = 0.15 | 1.24
303 K, x1 = 0.2 | 0.843
308 K, x1 = 0.01 | 1.47
308 K, x1 = 0.02 | 2.06
308 K, x1 = 0.03 | 2.39
308 K, x1 = 0.05 | 2.45
308 K, x1 = 0.06 | 2.41
308 K, x1 = 0.07 | 2.33
308 K, x1 = 0.1 | 2.01
308 K, x1 = 0.12 | 1.7
308 K, x1 = 0.15 | 1.36
313 K, x1 = 0.01 | 1.53
313 K, x1 = 0.02 | 2.15
313 K, x1 = 0.03 | 2.5
313 K, x1 = 0.05 | 2.57
313 K, x1 = 0.06 | 2.54
313 K, x1 = 0.08 | 2.34
313 K, x1 = 0.1 | 2.14
313 K, x1 = 0.12 | 1.81
313 K, x1 = 0.15 | 1.46
313 K, x1 = 0.2 | 1.04
318 K, x1 = 0.02 | 2.23
318 K, x1 = 0.03 | 2.6
318 K, x1 = 0.05 | 2.7
318 K, x1 = 0.07 | 2.61
318 K, x1 = 0.1 | 2.28
318 K, x1 = 0.12 | 1.94
323 K, x1 = 0.02 | 2.33
323 K, x1 = 0.03 | 2.71
323 K, x1 = 0.05 | 2.82
323 K, x1 = 0.06 | 2.8
323 K, x1 = 0.07 | 2.74
323 K, x1 = 0.08 | 2.6
323 K, x1 = 0.1 | 2.41
323 K, x1 = 0.12 | 2.07
323 K, x1 = 0.15 | 1.69
328 K, x1 = 0.01 | 1.69
328 K, x1 = 0.02 | 2.42
328 K, x1 = 0.03 | 2.82
328 K, x1 = 0.06 | 2.93
328 K, x1 = 0.07 | 2.87
328 K, x1 = 0.08 | 2.74
328 K, x1 = 0.1 | 2.55
328 K, x1 = 0.15 | 1.82
328 K, x1 = 0.2 | 1.34
333 K, x1 = 0.05 | 3.08
333 K, x1 = 0.06 | 3.06
333 K, x1 = 0.08 | 2.88
333 K, x1 = 0.1 | 2.69
333 K, x1 = 0.12 | 2.32
333 K, x1 = 0.15 | 1.94
333 K, x1 = 0.2 | 1.46
338 K, x1 = 0.01 | 1.8
338 K, x1 = 0.02 | 2.59
338 K, x1 = 0.03 | 3.03
338 K, x1 = 0.06 | 3.21
338 K, x1 = 0.08 | 3.02
338 K, x1 = 0.1 | 2.83
338 K, x1 = 0.12 | 2.46
338 K, x1 = 0.15 | 2.06
338 K, x1 = 0.2 | 1.57
343 K, x1 = 0.01 | 1.86
343 K, x1 = 0.02 | 2.67
343 K, x1 = 0.03 | 3.14
343 K, x1 = 0.05 | 3.33
343 K, x1 = 0.06 | 3.34
343 K, x1 = 0.1 | 2.96
343 K, x1 = 0.12 | 2.6
343 K, x1 = 0.2 | 1.7
348 K, x1 = 0.01 | 1.91
348 K, x1 = 0.03 | 3.24
348 K, x1 = 0.05 | 3.45
348 K, x1 = 0.06 | 3.46
348 K, x1 = 0.1 | 3.11
348 K, x1 = 0.15 | 2.32
348 K, x1 = 0.2 | 1.81

Reference: a compilation of properties of binary mixtures (doi:10.1016/j.molliq.2022.118933)
